Reference: PubChem BioAssay AID463206 (Broad Institute, 2010)
The source made the active and inactive calls.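 Rule for the calls: active = caspase luminescence falls with dose and the half-maximal concentration AC50 from the fitted curve is at or below a set limit; inconclusive = flat fit at 30 to 70% signal loss, or invalid fit; inactive = AC50 above the limit, or signal rises instead.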

system: INS-1E cytokine-induced caspase-3/7, Caspase-Glo luminescence, 48 h; test: inhibitors of cytokine-induced caspase-3/7 activity, dose response, orthogonal assay for beta-cell apoptosis protection project, INS-1E rat cells, luminescence (AID 463206)

Compound	AC50
CCOc1cccc(/C=N/NC(=O)c2ccc3c(c2)OCCO3)c1O	> 26 µM (inactive)
CCN(CC)c1ccc(N=Cc2ccccc2[N+](=O)[O-])cc1	> 26 µM (inactive)
Cc1ccccc1OC1C(=O)N(Cc2ccc3c(c2)OCO3)C1c1sccc1C (centres undefined)	> 26 µM (inactive)
O=c1c2c(nc3c(-c4ccc(Cl)cc4)c[nH]n13)CCCC2	> 26 µM (inactive)
CC1(C)CCN2CCC(C)(C)c3c(O)ccc1c32	> 26 µM (inactive)
CNC[C@@H](Cc1ccccc1)NC[C@@H](CC1CCCCC1)NCCCc1ccccc1	> 26 µM (inactive)
CC(C)(C)c1ccc(/C=C(\c2nc3ccccc3[nH]2)S(=O)(=O)c2ccccc2)cc1	> 26 µM (inactive)
CC(=O)Nc1sc2c(c1-c1nc3ccccc3s1)CN(C(C)C)CC2	> 26 µM (inactive)
COc1ccc(C(NC(C)=O)c2cc(Cl)c3cccnc3c2O)cc1OC (centres undefined)	> 26 µM (inactive)
COc1ccc(C(NC(=O)C(C)C)c2ccc3cccnc3c2O)cc1 (centres undefined)	> 26 µM (inactive)
Cc1cc(N/N=C\c2ccc(Br)cc2)nc(-n2nc(C)cc2C)n1	> 26 µM (inactive)
COCC1CCCCN1C(=O)c1cc(COc2ccc3ncccc3c2)on1 (centres undefined)	> 26 µM (inactive)
CCc1ccc(-c2cc(C(F)(F)F)n3nc(C(=O)Nc4cnn(Cc5ccc(C)cc5)c4)cc3n2)s1	> 26 µM (inactive)
C=CC[n+]1c(-c2ccc(OCC)cc2)csc1NNC(=O)Nc1ccccc1	> 26 µM (inactive)
CCN1CCN(CCCNC(=O)c2ccc3c(c2)NC(=O)/C(=C\c2cccc(C)c2)S3)CC1	10.3 µM
Cc1ccc(C)c(-c2csc(NC(=O)C3=COCCO3)n2)c1	> 26 µM (inactive)
N=c1c2c(n(Cc3cccc(Cl)c3)c3c1CCC3)CCCC2	> 26 µM (inactive)
O=C(CNc1ccccc1)N/N=C/c1c(O)ccc2ccccc12	> 26 µM (inactive)
COc1ccc(/C=N/Nc2cc(C)nc3ccc(OC)cc23)c(OC)c1	10.7 µM
Cc1cc(C)c(OCC(O)CNC(C)(C)C)c(C)c1 (centres undefined)	> 26 µM (inactive)
O=C(Nc1ccccc1Cl)/C(Cl)=C(\Cl)S(=O)c1ccccc1 (centres undefined)	> 26 µM (inactive)
NC(=O)c1c(-c2ccc(Cl)cc2Cl)csc1NC(=O)Cc1ccccc1	> 26 µM (inactive)

Compound	AC50
CCCCNC1=CC(=O)C(=O)c2ccccc21	> 26 µM (inactive)
Cc1ccc(-n2c(-c3ccccc3)c[n+]3c2CCC3)cc1	> 26 µM (inactive)
CC(=O)Nc1ccc(S(=O)(=O)Nc2ccc(N3CCCCC3)cc2)cc1	> 26 µM (inactive)
CCCC(=O)NC(c1ccc(Cl)cc1Cl)c1ccc2cccnc2c1O (centres undefined)	> 12 µM (inactive)
CC(NCC(O)COCCC12CC3CC(CC(C3)C1)C2)c1ccccc1 (centres undefined)	> 26 µM (inactive)
CCCCn1c(=N)n(CC(=O)c2ccc(Br)s2)c2ccccc21	> 26 µM (inactive)
CC(=O)NN1C(=O)c2ccc3c4c(ccc(c24)C1=O)C(=O)N(NC(C)=O)C3=O	> 26 µM (inactive)
O=C(Nc1cc(S(=O)(=O)N2CCCCC2)ccc1Cl)c1ccccc1NS(=O)(=O)c1ccc(F)cc1	> 26 µM (inactive)
CCN(CC)c1ccc(/C=N/NC(=O)Cc2cccs2)c(O)c1	> 26 µM (inactive)
O=C(Nc1ccc(Cl)c(Cl)c1)Nc1nnc(CC2=CCCCC2)s1	> 26 µM (inactive)
O=C(Cn1c(-c2ccccc2)c[n+]2ccsc12)c1ccc([N+](=O)[O-])cc1	> 26 µM (inactive)
O=C(NC(Nc1nc2ccc([N+](=O)[O-])cc2s1)(C(F)(F)F)C(F)(F)F)c1cccnc1	> 26 µM (inactive)
OCCNc1nc(Nc2ccc(Cl)c(Cl)c2)nc2ccccc12	> 26 µM (inactive)
Cc1cc(-n2c(SCC(=O)Nc3ccc(F)c(F)c3)nc3n[nH]c(C)c3c2=N)ccc1Cl	> 26 µM (inactive)
C=C1C(O)[C@@H]2O[C@]3(CC[C@H](/C=C/C(C)[C@@H]4CC(C)=CC5(O[C@H](C[C@@](C)(O)CO)CCC5O)O4)O3)CC[C@H]2O[C@@H]1C(O)CC(C)[C@H]1OC2(CCCCO2)CCC1C (some centres undefined)	3.84 µM
Cc1ccc(NC(=O)/C=C/c2ccc([N+](=O)[O-])s2)c(C)c1	1.17 µM
CC(O)CNc1nc2sc3c(c2c(=O)n1Cc1ccco1)CCCCC3 (centres undefined)	> 12 µM (inactive)
COc1ccc(C(=O)/C(C#N)=N/Nc2ccc([N+](=O)[O-])cc2)cc1	> 26 µM (inactive)
COc1ccc(CC(=O)Nc2nc(-c3ccc(F)c(F)c3)cs2)cc1OC	26.5 µM
CC(=O)c1cccc(NS(=O)(=O)c2ccc(N/C=C/C(=O)c3ccc(F)cc3)cc2)c1	> 26 µM (inactive)
CCCCNC(=O)c1ccc(Cn2c(=S)[nH]c3c([nH]c4ccc(OC)cc43)c2=O)cc1	> 26 µM (inactive)
Cc1cccc2nc(CSc3nc4[nH]ncc4c(=O)n3-c3cccc(Cl)c3)cc(=O)n12	> 26 µM (inactive)
